Measurements taken from patent US5726311A, “7-disubstituted-methyl-4-oxo-3H,5H-pyrrolo[3,2-d]pyrimidine and pharmaceutical uses and compositions containing the same” (BioCryst Pharmaceuticals, Inc., priority 1995, dated 1998).
pIC50: −log10 of the molar value.

Target: T1, purine nucleoside phosphorylase (PNP) (Bos taurus, UniProt P55859)
T1 sequence (P55859 1-289): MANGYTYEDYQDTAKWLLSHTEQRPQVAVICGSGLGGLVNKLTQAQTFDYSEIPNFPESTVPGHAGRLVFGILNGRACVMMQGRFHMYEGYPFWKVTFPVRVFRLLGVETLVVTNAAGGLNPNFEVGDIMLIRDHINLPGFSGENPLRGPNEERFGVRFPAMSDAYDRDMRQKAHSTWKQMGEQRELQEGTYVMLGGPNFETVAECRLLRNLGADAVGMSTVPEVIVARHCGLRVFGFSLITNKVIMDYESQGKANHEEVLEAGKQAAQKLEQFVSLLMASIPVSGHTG
Test: Purine nucleoside phosphorylase (PNP) radiochemical enzyme assay, [14C]-hypoxanthine formation from [14C]-inosine
Details: for pIC50: IC50 (PNP inhibition), calf spleen PNP; for IC50: IC50 (nM), table of Examples 36-42, phosphate concentration not printed in table (Ex. 37 and 38 values agree with 1 mM phosphate in text)

Structure (SMILES) | pIC50 (1 mM phosphate) | pIC50 (50 mM phosphate) | IC50 [nM] | enzyme inhibition activity (IC50), in words (phosphate concentration not stated)
N#CCC(c1cc(Cl)cc(Cl)c1Cl)c1c[nH]c2c(=O)[nH]c(N)nc12 (stereo not shown) [Example 8A] | 6.19 | 5.00 | – | –
Nc1nc(O)c2[nH]cc(C(CC(=O)O)c3ccccc3)c2n1 (stereo not shown) [Example 15, 3-(2-amino-4-oxo-3H,5H-pyrrolo[3,2-d]pyrimidin-7-yl)-3-phenylpropanoic acid] | 7.92 | 6.72 | – | –
Nc1nc(O)c2[nH]c(N)c(Cc3cccs3)c2n1 [2,6-diamino-3,5-dihydro-7-(2-thienylmethyl)-4H-pyrollo-[3,2-d]pyrimidine-4-one, reference compound] | – | – | 160 | –
N#CCC(c1cccc(Cl)c1)c1c[nH]c2c(=O)[nH]cnc12 (stereo not shown) [Example 40] | – | – | 10 | –
COC(=O)CC(c1ccccc1)c1c[nH]c2c(=O)[nH]c(N)nc12 (stereo not shown) [Example 19, 3-(2-amino-4-oxo-3H,5H-pyrrolo[3,2-d]pyrimidin-7-yl)-3-phenylpropanoic acid, methyl ester] | – | – | – | Significant activity
